Tests used:
[1] = tested on: MRSA (ATCC BAA-44); experiment: MRSA proliferation assay; format: cell-based, Staphylococcus aureus
[2] = molecular target: E. coli GroEL (Escherichia coli, UniProt P0A6F5); experiment: Isothermal titration calorimetry binding to GroEL; conditions: for T∆S: 20°C (293.15 K); for Stoichiometry n, GroELmonomer : Molecule: single-site binding model; for ∆G: calculated with Gibbs equation at 20°C
[3] = tested on: S. aureus (ATCC 25923); experiment: S. aureus proliferation assay; format: cell-based, Staphylococcus aureus
[4] = tested on: MRSA strain (ATCC BAA-44); experiment: 12-day serial passage MRSA resistance assay; format: cell-based, Staphylococcus aureus; conditions: for MRSA resistance generation: 12 passages over 12 days
[5] = molecular target: T1, native rhodanese (Bos taurus, UniProt P00586); experiment: Native Rho enzymatic reporter counter-screen; format: biochemical
T1 sequence (P00586 2-297 limits assumed): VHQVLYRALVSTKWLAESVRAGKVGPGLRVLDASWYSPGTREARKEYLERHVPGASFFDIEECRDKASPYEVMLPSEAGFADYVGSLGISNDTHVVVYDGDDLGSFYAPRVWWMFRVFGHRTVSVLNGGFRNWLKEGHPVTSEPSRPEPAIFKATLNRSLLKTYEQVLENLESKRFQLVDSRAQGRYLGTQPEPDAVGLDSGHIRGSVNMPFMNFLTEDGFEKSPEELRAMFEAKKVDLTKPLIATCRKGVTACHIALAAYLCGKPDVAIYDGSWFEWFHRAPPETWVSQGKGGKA

[6] = molecular target: T2, native malate dehydrogenase (Sus scrofa, UniProt P00346); experiment: Native MDH enzymatic reporter counter-screen; format: biochemical
T2 sequence (P00346 25-338): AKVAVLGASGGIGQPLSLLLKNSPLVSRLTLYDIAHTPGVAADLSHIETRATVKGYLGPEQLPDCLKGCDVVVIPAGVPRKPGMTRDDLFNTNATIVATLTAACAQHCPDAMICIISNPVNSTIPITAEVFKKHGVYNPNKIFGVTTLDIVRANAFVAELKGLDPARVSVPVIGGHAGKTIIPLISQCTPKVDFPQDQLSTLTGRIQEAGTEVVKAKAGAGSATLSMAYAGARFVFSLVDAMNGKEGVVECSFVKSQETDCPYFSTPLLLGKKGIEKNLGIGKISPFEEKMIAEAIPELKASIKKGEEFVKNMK

[7] = tested on: ESKAPE pathogens; conditions: cited from earlier work

E. coli GroEL, sequence (P0A6F5 2-548): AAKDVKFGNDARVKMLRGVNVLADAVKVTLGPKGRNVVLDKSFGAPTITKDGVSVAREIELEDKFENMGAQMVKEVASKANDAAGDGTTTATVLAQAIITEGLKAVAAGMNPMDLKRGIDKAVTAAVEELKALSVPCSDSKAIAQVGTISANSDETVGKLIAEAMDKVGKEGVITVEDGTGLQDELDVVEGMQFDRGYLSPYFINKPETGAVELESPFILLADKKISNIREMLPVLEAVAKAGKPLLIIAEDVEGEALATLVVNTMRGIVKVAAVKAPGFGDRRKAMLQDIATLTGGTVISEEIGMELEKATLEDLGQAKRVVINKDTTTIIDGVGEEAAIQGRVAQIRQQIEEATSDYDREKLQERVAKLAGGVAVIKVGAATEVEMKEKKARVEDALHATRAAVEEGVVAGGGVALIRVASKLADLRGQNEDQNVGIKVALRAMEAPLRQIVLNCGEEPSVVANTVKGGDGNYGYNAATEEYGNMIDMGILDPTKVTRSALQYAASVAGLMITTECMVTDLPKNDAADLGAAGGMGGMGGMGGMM

## O=S(=O)(Nc1ccc(-c2nc3cc(NS(=O)(=O)c4ccc(Cl)cc4)ccc3o2)cc1)c1ccc(Cl)cc1 [2c-p]
[1]
  inhibition of MRSA proliferation: most potent and selective inhibitors of MRSA proliferation

## NCc1ccc(S(=O)(=O)Nc2ccc3oc(-c4ccc(NS(=O)(=O)c5ccc(Cl)s5)cc4)nc3c2)cc1 [20L]
[1]
  inhibition of MRSA proliferation: only moderately active
[2]; ITC, 20°C
  Stoichiometry n, Molecule : GroELmonomer: 1.67 ± 0.39
  ∆H: -8.30 ± 0.52 kcal/mol
  ∆S: 0.003 ± 0.002 kcal/molK
  Stoichiometry n, GroELmonomer : Molecule: 0.6 ± 0.14
[2]; ITC
  T∆S: 0.84 ± 0.55 kcal/mol
[2]; ITC, 20°C, molecules per GroEL tetradecamer
  Stoichiometry n, Molecule : GroELoligomer: 23.3 ± 5.4
[2]
  ∆G: -9.14 ± 0.06 kcal/mol
[3]
  inhibition of S. aureus proliferation: only moderately active

## NCc1ccc(S(=O)(=O)Nc2ccc(-c3nc4cc(NS(=O)(=O)c5ccc(Cl)s5)ccc4o3)cc2)cc1 [20R]
[1]
  inhibition of MRSA proliferation: only moderately active
[2]; ITC, 20°C
  Stoichiometry n, Molecule : GroELmonomer: 1.30 ± 0.27
  ∆H: -9.78 ± 0.80 kcal/mol
  ∆S: 0.001 ± 0.003 kcal/molK
  Stoichiometry n, GroELmonomer : Molecule: 0.77 ± 0.16
[2]; ITC
  T∆S: 0.20 ± 0.82 kcal/mol
[2]
  ∆G: -9.98 ± 0.26 kcal/mol
[4]
  MRSA resistance generation: unable to generate resistance
[3]
  inhibition of S. aureus proliferation: only moderately active

## O=[N+]([O-])c1cc(S(=O)(=O)Nc2ccc(-c3nc4cc(NS(=O)(=O)c5ccc(Cl)s5)ccc4o3)cc2)ccc1Cl [28R]
[5]
  inhibition of native rhodanese: only to a minor extent
[6]
  inhibition of native malate dehydrogenase: only to a minor extent
[4]
  MRSA resistance generation: rapidly developed resistance
[4]; two days without inhibitors (24 h agar, 24 h liquid)
  sensitivity of resistant MRSA after culture without inhibitor: regained sensitivity

## Cc1ccc(S(=O)(=O)Nc2ccc(-c3nc4ccc(NS(=O)(=O)c5ccc(C)cc5)cc4[nH]3)cc2)cc1 [compound 1]
[7]
  antibacterial effects against ESKAPE pathogens: no antibacterial effects

## O=S(=O)(Nc1ccc(-c2nc3cc(NS(=O)(=O)c4cccs4)ccc3o2)cc1)c1cccs1 [compound 6]
[1]
  inhibition of MRSA proliferation: most potent and selective inhibitors of MRSA proliferation

## CN[C@H](CC(C)C)C(=O)N[C@H]1C(=O)N[C@@H](CC(N)=O)C(=O)N[C@H]2C(=O)N[C@H]3C(=O)N[C@H](C(=O)N[C@H](C(=O)O)c4cc(O)cc(O)c4-c4cc3ccc4O)[C@H](O)c3ccc(c(Cl)c3)Oc3cc2cc(c3O[C@@H]2O[C@H](CO)[C@@H](O)[C@H](O)[C@H]2O[C@H]2C[C@](C)(N)[C@H](O)[C@H](C)O2)Oc2ccc(cc2Cl)[C@H]1O [vancomycin, reference compound]
[4]
  MRSA resistance generation: retained sensitivity
